Several values for one entry are separate records, joined by “and”; a condition that tells them apart may be missing. Equal values may be shown once. After the bases stand the sugars from the 5' end (letter, count) and the backbone: PS all phosphorothioate, else s phosphorothioate and o phosphodiester by linkage. Methylation of C is not given here. e = 2'-O-(2-methoxyethyl) (MOE); k = constrained ethyl (cEt); d = 2'-deoxy (DNA)
Molecular target: IRF4
Settings: ASO

Row | Sequence | target mRNA inhibition (MM.1R, 1 µM) | target mRNA inhibition (SK-MEL-28, 4 µM) | other results
1 | ACGTGTGCTTGCCAAG (sugars kkdddddddddkdkdk, PS) | 75% and 66% and 56% |  | target mRNA inhibition (MM.1R, 0.0625 µM): 15%; target mRNA inhibition (MM.1R, 0.25 µM): 43%; target mRNA inhibition (MM.1R, 4 µM): 77%
2 | ACTAACAGGGAGACTG (sugars k3 d10 k3, PS) | -19% |  | 
3 | ACTAAGCTTGATAAAG (sugars k3 d10 k3, PS) | 14% and 5% |  | 
4 | ACTAATACCTACCTGC (sugars k3 d10 k3, PS) |  | 48% | 
5 | ACTACTATTGTGGAAA (sugars k3 d10 k3, PS) |  | 18% | 
6 | ACTCACTGGTTCTGAA (sugars k3 d10 k3, PS) |  | 14% | 
7 | ACTCCATGAGGTTTTC (sugars k3 d10 k3, PS) |  | 73% | 
8 | ACTCTTAGGCACATCA (sugars k3 d10 k3, PS) | 27% |  | 
9 | ACTGACCTTTACTTCA (sugars k3 d10 k3, PS) |  | 43% | 
10 | ACTGCCGTGATCTGAG (sugars k3 d10 k3, PS) | 34% and 29% |  | 
11 | ACTGCTTGAGGTTTTC (sugars kddddddddddkekek, PS) | 22% |  | 
12 | ACTGCTTGAGGTTTTC (sugars kkdddddddddkdkdk, PS) | 19% |  | 
13 | ACTGGATTGATGTGAT (sugars k3 d10 k3, PS) | 25% and 39% |  | target mRNA inhibition (MM.1R, 0.0625 µM): 2% and 9%; target mRNA inhibition (MM.1R, 0.25 µM): 6% and 20%; target mRNA inhibition (MM.1R, 4 µM): 65% and 69%
14 | ACTGTCCACTGAGTAC (sugars k3 d10 k3, PS) |  | 61% | 
15 | ACTGTTACCGATGCTT (sugars k3 d10 k3, PS) | 43% and 25% |  | target mRNA inhibition (MM.1R, 0.0625 µM): -11%; target mRNA inhibition (MM.1R, 0.25 µM): 4%; target mRNA inhibition (MM.1R, 4 µM): 65%
16 | ACTGTTACCGATGCTT (sugars kdddddddddkekeke, PS) | -2% and 17% |  | 
17 | ACTTAACCCACATCAC (sugars k3 d10 k3, PS) |  | -22% | 
18 | AGAAACCCTCATCACC (sugars k3 d10 k3, PS) |  | -5% | 
19 | AGAAAGAAGCAAGTCG (sugars k3 d10 k3, PS) |  | 37% | 
20 | AGAACGCACGGACGAA (sugars k3 d10 k3, PS) | 1% |  | 
21 | AGAATAAACACCCCTT (sugars k3 d10 k3, PS) |  | 74% | 
22 | AGAGACCATGTTCAGA (sugars k3 d10 k3, PS) | 12% |  | 
23 | AGAGGAATGAGCACTC (sugars k3 d10 k3, PS) | 5% |  | 

Row | Sequence | target mRNA inhibition (MM.1R, 1 µM) | target mRNA inhibition (SK-MEL-28, 4 µM) | other results
24 | AGAGGAATGGCGGATA (sugars k3 d10 k3, PS) |  | 42% | 
25 | AGATCGAGCGGTGAAA (sugars k3 d10 k3, PS) |  | 24% | 
26 | AGATTAATAGTAAGTT (sugars k3 d10 k3, PS) |  | 4% | 
27 | AGATTTACACCGTTGC (sugars k3 d10 k3, PS) | 30% |  | 
28 | AGCAAAACGCAGAGCC (sugars k3 d10 k3, PS) |  | 61% | 
29 | AGCAAGGCCTCTGAGC (sugars k3 d10 k3, PS) |  | 55% | 
30 | AGCAGTAAACGCAAGT (sugars k3 d10 k3, PS) | 27% |  | 
31 | AGCAGTGATGTCAGGT (sugars k3 d10 k3, PS) | 84% and 68% |  | target mRNA inhibition (MM.1R, 0.0625 µM): 1%; target mRNA inhibition (MM.1R, 0.25 µM): 23%; target mRNA inhibition (MM.1R, 4 µM): 92%
32 | AGCAGTGATGTCAGGT (sugars kkdddddddddkekek, PS) | 66% and 67% and 64% |  | target mRNA inhibition (MM.1R, 0.0625 µM): 34%; target mRNA inhibition (MM.1R, 0.25 µM): 54%; target mRNA inhibition (MM.1R, 4 µM): 79%
33 | AGCATAGCATTATCTA (sugars k3 d10 k3, PS) |  | 34% | 
34 | AGCATCACTATTAAGA (sugars k3 d10 k3, PS) | 10% | 72% | target mRNA inhibition (MM.1R, 0.0625 µM): -5%; target mRNA inhibition (MM.1R, 0.074 µM): 2%; target mRNA inhibition (MM.1R, 0.222 µM): 10%; target mRNA inhibition (MM.1R, 0.25 µM): 1%; target mRNA inhibition (MM.1R, 0.666 µM): 10%; target mRNA inhibition (MM.1R, 2 µM): 11%; target mRNA inhibition (MM.1R, 4 µM): 26%
35 | AGCATCCGCTTGGAGA (sugars k3 d10 k3, PS) |  | 37% | 
36 | AGCATTATCTACCTCA (sugars k3 d10 k3, PS) |  | 78% | 
37 | AGCATTTTATCATCCG (sugars e1 k2 d9 k2 e2, PS) | 43% |  | 
38 | AGCATTTTATCATCCG (sugars k2 d9 e3 k2, PS) | 28% |  | 
39 | AGCATTTTATCATCCG (sugars k3 d9 k3 e1, PS) | 66% |  | target mRNA inhibition (MM.1R, 0.074 µM): 17%; target mRNA inhibition (MM.1R, 0.222 µM): 32%; target mRNA inhibition (MM.1R, 0.666 µM): 61%; target mRNA inhibition (MM.1R, 2 µM): 83%
40 | AGCATTTTATCATCCG (sugars kdddddddddkekeke, PS) | 24% |  | 
41 | AGCATTTTATCATCCG (sugars kkddddddddddkeke, PS) | 33% |  | 
42 | AGCATTTTATCATCCG (sugars kkdddddddddkdkdk, PS) | 11% |  | 
43 | AGCATTTTATCATCCG (sugars kkdddddddddkekek, PS) | 39% |  | 
44 | AGCCAGAGGTTCGCTG (sugars k3 d10 k3, PS) |  | 25% | 
45 | AGCCAGTGCCAGTTCC (sugars k3 d10 k3, PS) |  | 39% | 
46 | AGCCGCTACAGCTTCT (sugars k3 d10 k3, PS) |  | -8% | 

Row | Sequence | target mRNA inhibition (MM.1R, 1 µM) | target mRNA inhibition (SK-MEL-28, 4 µM) | other results
47 | AGCCTTCCTGCTCAGA (sugars k3 d10 k3, PS) |  | 55% | 
48 | AGCGAAGGGTAAGGCG (sugars k3 d10 k3, PS) |  | 14% | 
49 | AGCTAACTGGCCTCAA (sugars k3 d10 k3, PS) |  | 23% | 
50 | AGCTACGCAATCTTCT (sugars k3 d10 k3, PS) |  | 47% | 
51 | AGCTCATCTGCCAATC (sugars k3 d10 k3, PS) |  | 33% | 
52 | AGCTCCACTGTTAAAG (sugars k3 d10 k3, PS) |  | 44% | 
53 | AGCTCCTACATACATT (sugars k3 d10 k3, PS) |  | 44% | 
54 | AGCTCTAGACAGAGGC (sugars k3 d10 k3, PS) |  | 35% | 
55 | AGCTGACCATGTTACA (sugars k3 d10 k3, PS) |  | -19% | 
56 | AGCTGATGGAGAAACG (sugars k3 d10 k3, PS) |  | 10% | 
57 | AGCTGGTAGGTCAAAC (sugars k3 d10 k3, PS) |  | -5% | 
58 | AGCTTCTTTGAAGTGC (sugars k3 d10 k3, PS) |  | 62% | 
59 | AGCTTGATAAAGGCTG (sugars k3 d9 k3 e1, PS) | 2% |  | 
60 | AGGAAACTTGGAGCGC (sugars k3 d10 k3, PS) | 15% | 77% | target mRNA inhibition (MM.1R, 0.0625 µM): -1%; target mRNA inhibition (MM.1R, 0.25 µM): 2%; target mRNA inhibition (MM.1R, 4 µM): 42%
61 | AGGAACGAAGAGCAGG (sugars k3 d10 k3, PS) |  | 43% | 
62 | AGGAACTGACCTAACT (sugars k3 d10 k3, PS) |  | 31% | 
63 | AGGACAATGGAGATAC (sugars k3 d10 k3, PS) |  | 72% | 
64 | AGGACACTCACAGGCG (sugars k3 d10 k3, PS) | 8% |  | 
65 | AGGCACATCAATGTTT (sugars kdddddddddkekeke, PS) | -9% and 3% |  | 
66 | AGGCACCGCACTCCGG (sugars k3 d10 k3, PS) | -13% |  | 
67 | AGGCACTTACTAGGTG (sugars k3 d10 k3, PS) |  | 54% | 
68 | AGGCAGTTGTGCCGTC (sugars k3 d10 k3, PS) |  | -62% | 
69 | AGGCTCGGGCAGAGCC (sugars k3 d10 k3, PS) |  | 1% | 

Row | Sequence | target mRNA inhibition (MM.1R, 1 µM) | target mRNA inhibition (SK-MEL-28, 4 µM) | other results
70 | AGGGACCGCGCCAGGC (sugars k3 d10 k3, PS) | 0% |  | 
71 | AGGTAAAGGCACATTC (sugars k3 d10 k3, PS) |  | 19% | 
72 | AGGTAATCTGTATAGT (sugars k3 d10 k3, PS) |  | 62% | 
73 | AGTAACTGACACGCAC (sugars k3 d10 k3, PS) |  | 51% | 
74 | AGTACAGTCCACTCCA (sugars k3 d10 k3, PS) | 7% |  | 
75 | AGTATGAGAAACGGCC (sugars k2 d9 e3 k2, PS) | 16% |  | 
76 | AGTATGAGAAACGGCC (sugars kdddddddddkekeke, PS) | 4% |  | 
77 | AGTCAAGCCCCAAGCC (sugars k3 d10 k3, PS) |  | 13% | 
78 | AGTCAATCACTGGAGA (sugars k3 d10 k3, PS) | 16% and 22% | 60% | target mRNA inhibition (MM.1R, 0.0625 µM): 1% and -8%; target mRNA inhibition (MM.1R, 0.074 µM): 0%; target mRNA inhibition (MM.1R, 0.222 µM): -15%; target mRNA inhibition (MM.1R, 0.25 µM): 4% and 5%; target mRNA inhibition (MM.1R, 0.666 µM): -7%; target mRNA inhibition (MM.1R, 2 µM): 9%; target mRNA inhibition (MM.1R, 4 µM): 40% and 45%
79 | AGTCACCTGGAATCTT (sugars k3 d10 k3, PS) |  | 47% | 
80 | AGTGAAGTCGGGAGAT (sugars k3 d10 k3, PS) | 8% |  | 
81 | AGTGACTTGCATCCAT (sugars kkddddddddddkeke, PS) | 50% |  | 
82 | AGTGACTTGCATCCAT (sugars kkdddddddddkdkdk, PS) | 22% |  | 
83 | AGTGATAGGTATACTT (sugars k3 d10 k3, PS) |  | 39% | 
84 | AGTTGTAAATGAGTCG (sugars k2 d9 e3 k2, PS) | 66% |  | target mRNA inhibition (H929, 0.04 µM): 57% and 42%; target mRNA inhibition (KMS11, 0.2 µM): 86% and 92%; target mRNA inhibition (MM.1R, 0.074 µM): 10%; target mRNA inhibition (MM.1R, 0.222 µM): 25%; target mRNA inhibition (MM.1R, 0.666 µM): 55%; target mRNA inhibition (MM.1R, 2 µM): 77%
85 | AGTTGTAAATGAGTCG (sugars kddddddddddkekek, PS) | 44% |  | 
86 | AGTTGTAAATGAGTCG (sugars kkdddddddddekeke, PS) | 73% |  | target mRNA inhibition (MM.1R, 0.074 µM): 17%; target mRNA inhibition (MM.1R, 0.222 µM): 44%; target mRNA inhibition (MM.1R, 0.666 µM): 67%; target mRNA inhibition (MM.1R, 2 µM): 86%
87 | AGTTTGTGAAGCATCC (sugars k3 d10 k3, PS) |  | 69% | 
88 | ATAAACACCCCTTCTT (sugars k3 d10 k3, PS) |  | 30% | 
89 | ATAACACGGTGTTGAC (sugars k3 d10 k3, PS) | 21% |  | 
90 | ATAACCGGTAGAGTGA (sugars k3 d10 k3, PS) |  | 50% | 
91 | ATAATATAGTTGTCTG (sugars k3 d10 k3, PS) |  | 35% | 

Reference: the OligoGym collection
